Results published in patent US20260130928A1, “COMBINATION OF AKR1C3 ACTIVATED ANTICANCER PRODRUG COMPOUND AND ANALGESIC DRUG FOR TREATING CANCER PATIENTS ACCOMPANIED BY PAIN” (ASCENTAWITS PHARMACEUTICALS, LTD., priority 2022, published 2026).
Like-named read-outs stand apart in the source and are kept apart here.

Key:
AKR1C3 = settings: reported in literature; cited from earlier work
H460 cell line [1] = assay: Cell proliferation inhibition by combining Naproxen or TH-3021 and AST-3424 in different sequence of administration (CTG); assay type: cell-based, human; settings: for effect of subsequent addition on the efficacy of AST-3424: Group 3: added after 2 h AST-3424 pretreatment and washing
Description: The following are the different treatment methods. […] The plate was shaken gently to ensure uniform mixing, and placed in the incubator for 2 hours. […] The plate was shaken gently to ensure uniform mixing, and placed in the incubator for 2 hours. Subsequently, the plate was washed to remove the compound, and placed in the incubator at 37° C. with 5% CO2 for further 72 hours. […] The plate was shaken gently to ensure uniform mixing, and placed in the incubator for 2 hours. Subsequently, the plate was washed to remove the compounds, and placed in the incubator at 37° C. with 5% CO2 for 72 hours. […] The plate was shaken gently to ensure uniform mixing, and placed in the incubator for 2 hours. […] The plate was shaken gently to ensure uniform mixing, and placed in the incubator for 2 hours. Subsequently, the plate was washed to remove the compounds, and placed in the incubator at 37° C. with 5% CO2 for further 72 hours. […] The plate was shaken gently to ensure uniform mixing, and placed in the incubator for 2 hours. […] The plate was shaken gently to ensure uniform mixing, and placed in the incubator for 2 hours. Subsequently, the plate was washed to remove the compounds, and placed in the incubator at 37° C. with 5% CO2 for further 72 hours. b) Administrating single drug: after 24 hours of cell seeding, the compound was administered alone. […] The plate was shaken gently to ensure uniform mixing, and placed in the incubator at 37° C. with 5% CO2 for 2 hours. Subsequently, the compound was washed off, and each well was added with fresh medium. The plate was placed in the incubator at 37° C. with 5% CO2 for further 72 hours.

H460 cell line [2] = assay: In vitro cell proliferation inhibition with the drug combination (CTG method); assay type: cell-based, human; settings: combined with AST-3424
Description: • a) H460 cells (human non-small lung cancer cells, AKR1C3 enzyme highly expressed) were cultured in RPMI-1640 medium, added with 10% FBS and 1% double antibody, and placed at 37° C. and 5% CO2 for culturing.
• a) The cells were routinely cultured until the cell saturation was 80%-90%, and when the required quantity was reached, the cells were collected. • b) The cells were resuspended with the corresponding medium and cell counts were performed to prepare a cell suspension with appropriate density. • c) The cell suspension was added to a 96-well plate with 100 μL per well, and the cell density was 2,000 cells per well. • d) The cells were incubated overnight in an incubator at 37° C. with 5% CO2. 1.1.3 Treating Cells with Compound (72 Hours)
AST-3424 alone: after 24 hours of cell seeding, AST-3424 was administered alone. Specifically, each well was supplemented with 99 μL of growth medium, and then added with 1 μL of the prepared AST-3424 solution to form different concentrations of AST-3424. The plate was shaken gently to ensure uniform mixing, and placed in an incubator at 37° C. with 5% CO2.
The cell plates were placed in the incubator for 72 hours.
1.1.4 Treating Cells with Compound (2 Hours) • a) Administrating single drug: after 24 hours of cell seeding, AST-3424 was administered alone. Specifically, each well was supplemented with 99 μL of growth medium, and then added with 1 μL of the prepared AST-3424 solution to form different concentrations of AST-3424. The plate was shaken gently to ensure uniform mixing, and placed in the incubator for 2 hours. […] The plate was shaken gently to ensure uniform mixing. After the plate was placed in the incubator for 2 hours, 1 μL of the prepared AST-3424 solution was added to form different concentrations of AST-3424. The plate was shaken gently to ensure uniform mixing, and placed in the incubator at 37° C. with 5% CO2 for another 2 hours. Then, the supernatant was discarded, and the remainder was washed twice with growth medium and added with 200 μL of fresh medium.
1.1.6 Detecting with CTG Method • a) The cell plate to be tested was placed at room temperature to equilibrium for 30 minutes, and 100 μL of culture medium was discarded from each well. • b) 25 μL CTG reagent (CelltiterGlo kit) was added to each well. The plate was placed on a fast shaker to shake for 2 minutes, and then placed at room temperature away from light for 30 minutes. • c) The chemiluminescent signal value was read with multifunctional microplate reader at reading time of 1000 ms.
IC50 was calculated with GraphPad Prism 5 software, and the IC50 (half maximal inhibitory concentration) of the compound was obtained using the following nonlinear fitting formula: […]

[3] = cited from earlier work; for AUC0-t / Cmax / T1/2 / Tmax: patients, mean
[4] = OBI-3424 dose level 1 mg/m^2, infusion
[5] = OBI-3424 dose level 2 mg/m^2, infusion
[6] = OBI-3424 dose level 4 mg/m^2, infusion
[7] = OBI-3424 dose level 6 mg/m^2, infusion
[8] = OBI-3424 dose level 8 mg/m^2, infusion
[9] = OBI-3424 dose level 10 mg/m^2, infusion
[10] = OBI-3424 dose level 12 mg/m^2, infusion
[11] = OBI-3424 dose level 14 mg/m^2, infusion

CC(=O)Oc1ccccc1C(=O)O [Aspirin]
AKR1C3 inhibitory activity (AKR1C3): have AKR1C3 inhibitory activity

O=C(O)Cc1ccccc1Nc1c(Cl)cccc1Cl [Diclofenac]
AKR1C3 inhibitory activity (AKR1C3): have AKR1C3 inhibitory activity

CC(C(=O)O)c1cccc(Oc2ccccc2)c1 (stereo not shown) [Fenoprofen]
AKR1C3 inhibitory activity (AKR1C3): have AKR1C3 inhibitory activity

CC(C(=O)O)c1ccc(-c2ccccc2)c(F)c1 (stereo not shown) [Flurbiprofen]
AKR1C3 inhibitory activity (AKR1C3): have AKR1C3 inhibitory activity

COc1ccc2c(c1)c(CC(=O)O)c(C)n2C(=O)c1ccc(Cl)cc1 [Indomethacin]
AKR1C3 inhibitory activity (AKR1C3): has AKR1C3 inhibitory activity

Cc1ccc(Cl)c(Nc2ccccc2C(=O)O)c1Cl [Meclofenamic Acid]
AKR1C3 inhibitory activity (AKR1C3): have AKR1C3 inhibitory activity

Cc1cccc(Nc2ccccc2C(=O)O)c1C [Mefenamic acid]
AKR1C3 inhibitory activity (AKR1C3): have AKR1C3 inhibitory activity

COc1ccc2cc([C@H](C)C(=O)O)ccc2c1 [Naproxen, reference compound]
effect of subsequent addition on the efficacy of AST-3424 (H460 cell line [1]): no longer affected the efficacy of AST-3424
effect of the combination on the cell proliferation inhibitory activity of AST-3424 (H460 cell line [2]): significantly affect
AKR1C3 inhibitory activity (AKR1C3): have AKR1C3 inhibitory activity

O=P(O)(N1CC1)N1CC1 [OBI-2660]
AUC0-t [3, 4]: 7.30 ng·h/mL
Cmax [3, 4]: 1.70 ng/mL
T1/2 [3, 4]: 3.08 h
Tmax [3, 4]: 1.75 h
AUC0-t [3, 5]: 10.00 ng·h/mL
Cmax [3, 5]: 2.30 ng/mL
T1/2 [3, 5]: 2.48 h
Tmax [3, 5]: 1.67 h
AUC0-t [3, 6]: 19.30 ng·h/mL
Cmax [3, 6]: 5.00 ng/mL
T1/2 [3, 6]: 2.00 h
Tmax [3, 6]: 1.33 h
AUC0-t [3, 7]: 27.40 ng·h/mL
Cmax [3, 7]: 6.80 ng/mL
T1/2 [3, 7]: 2.09 h
Tmax [3, 7]: 1.75 h
AUC0-t [3, 8]: 32.80 ng·h/mL
Cmax [3, 8]: 8.50 ng/mL
T1/2 [3, 8]: 1.87 h
Tmax [3, 8]: 1.44 h
AUC0-t [3, 9]: 29.20 ng·h/mL
Cmax [3, 9]: 10.10 ng/mL
T1/2 [3, 9]: 2.99 h
Tmax [3, 9]: 1.67 h
AUC0-t [3, 10]: 56.60 ng·h/mL
Cmax [3, 10]: 13.10 ng/mL
T1/2 [3, 10]: 2.41 h
Tmax [3, 10]: 1.53 h
AUC0-t [3, 11]: 45.60 ng·h/mL
Cmax [3, 11]: 11.20 ng/mL
T1/2 [3, 11]: 2.46 h
Tmax [3, 11]: 1.75 h
accumulation of exposure (Cmax and AUC) ([3]; between the two doses (Cycle 1 Day1 and Cycle 1 Day8)): no accumulation of exposure

CC(=O)Nc1ccc(O)cc1 [Paracetamol]
AKR1C3 inhibitory activity (AKR1C3): have AKR1C3 inhibitory activity

O=C([O-])c1ccccc1O.[Na+] [Sodium salicylate]
AKR1C3 inhibitory activity (AKR1C3): have AKR1C3 inhibitory activity

CC1=C(CC(=O)O)c2cc(F)ccc2/C1=C\c1ccc([S+](C)[O-])cc1 (stereo not shown) [Sulindac]
AKR1C3 inhibitory activity (AKR1C3): have AKR1C3 inhibitory activity

O=C(N1CCOCC1)N1CCN(c2ccc(Cl)cc2Cl)CC1 [TH-3021, reference compound]
effect of subsequent addition on the efficacy of AST-3424 (H460 cell line [1]): no longer affected the efficacy of AST-3424
difference in IC50 values of AST-3424 (fold) (H460 cell line [1]; group 1 (TH-3021 pretreatment, washed off)): 6 fold
difference in IC50 values of AST-3424 (fold) (H460 cell line [1]; groups 2 and 4 (TH-3021 present together with AST-3424)): 200 fold
AKR1C3 inhibitory activity (AKR1C3): specific inhibitor of AKR1C3

Cc1ccc(C(=O)c2ccc(CC(=O)O)n2C)cc1 [Tolmetin]
AKR1C3 inhibitory activity (AKR1C3): have AKR1C3 inhibitory activity

Cc1cc(CC(=O)O)n(C)c1C(=O)c1ccc(Cl)cc1 [Zomepirac]
AKR1C3 inhibitory activity (AKR1C3): have AKR1C3 inhibitory activity
